These results are taken from ChEMBL document CHEMBL1201862, “PubChem BioAssay data set” (2004).

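Cultured in 96-well plates, cells were exposed to test compound for 48 hours across five concentrations. The concentration for 50% growth inhibition is given as GI50.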 Calls of active or inactive are those of the source. Rule as the data show it: active = GI50 up to about 1.1 µM and inactive = higher.

Assay in all cases: DTP human tumour cell line panel, 48 h
The subject of experiment [1] is BT-549.
For experiment [2], the system named is MDA-N.
For experiment [3], the system named is LOX IMVI.
Experiment [4] has as its system SK-OV-3.
For experiment [5], the system named is TK-10.
In experiment [6] the test system is UO-31.
Experiment [7] has as its system SF-295.
Experiment [8] has as its system NCI-H226.
In experiment [9] the test system is COLO 205.
Experiment [10] relates to SNB-75.
For experiment [11], the system named is MDA-MB-435.
Experiment [12] relates to HT-29.
Experiment [13] relates to PC-3.
Experiment [14] has as its system SK-MEL-2.
The subject of experiment [15] is IGROV-1.
The test system of experiment [16] is NCI-H23.
Experiment [17] deals with M14.
In experiment [18] the test system is CAKI-1.
For experiment [19], the system named is SF-539.
In experiment [20] the test system is SN12C.

As a reminder, the GI50 is the concentration giving 50% growth inhibition.

As for `CC1CCC2(CC1)N=C1CCC(C)CC1C1(CCC(C)CC1)N2` (stereo not given), the GI50 in [1] was > 100 µM (inactive); in experiment [2], 73.8 µM (inactive); in experiment [3], > 100 µM (inactive); in experiment [4] it was > 100 µM (inactive); in experiment [5], > 100 µM (inactive); in experiment [6], > 100 µM (inactive). For the same compound, the GI50 in experiment [7] was > 100 µM (inactive); in [8] it was > 100 µM (inactive); in [9], > 100 µM (inactive); in [10] it was 19.6 µM (inactive); in experiment [11] it was > 100 µM (inactive); in experiment [12] it was 86.7 µM (inactive). Further, the GI50 was 41.2 µM (inactive) in [13]; > 100 µM (inactive) in experiment [14]; > 100 µM (inactive) in [15]; 95.7 µM (inactive) in [16]; > 100 µM (inactive) in experiment [17]; > 100 µM (inactive) in experiment [18]. Besides, the GI50 in experiment [19] is > 100 µM (inactive).

On to `COc1cccc2c1OC1c3ccccc3OCC1C2` (stereo not given), for which the GI50 is 62.2 µM (inactive) in experiment [1]; > 100 µM (inactive) in [2]; > 100 µM (inactive) in experiment [3]; > 100 µM (inactive) in experiment [4]; 43.9 µM (inactive) in [5]; 48 µM (inactive) in experiment [6]. In addition, the GI50 in experiment [7] is > 100 µM (inactive); in experiment [8], > 100 µM (inactive); in experiment [9], > 100 µM (inactive); in experiment [10], < 0.01 µM (active); in [11], > 100 µM (inactive); in experiment [12] it was > 100 µM (inactive). The GI50 was 82.6 µM (inactive) in experiment [13]; > 100 µM (inactive) in [14]; 41.1 µM (inactive) in experiment [15]; > 100 µM (inactive) in experiment [16]; > 100 µM (inactive) in [17]; > 100 µM (inactive) in experiment [20]. Besides, the GI50 in experiment [18] and in experiment [19] was > 100 µM (inactive) in each case.

On to `O=C(O)CC(Sc1ccccc1)c1ccccc1` (stereo not given), for which the GI50 in [1], in experiment [2], in [3], in [4], in experiment [5] and in [6] was > 100 µM (inactive) each time. Further, the GI50 in experiment [7], in [8], in [9], in experiment [10], in experiment [11] and in experiment [12] was > 100 µM (inactive) each time. In addition, the GI50 in experiment [13], in experiment [14], in experiment [15], in [16], in experiment [17] and in experiment [20] was > 100 µM (inactive) throughout. For the same compound, in experiment [18], the GI50 is > 100 µM (inactive).

Regarding `COc1ccc2oc(=O)cc(C)c2c1`, the GI50 is > 100 µM (inactive) in [1]; > 100 µM (inactive) in experiment [2]; > 100 µM (inactive) in experiment [3]; > 100 µM (inactive) in [5]; 91.4 µM (inactive) in [6]; > 100 µM (inactive) in [7]. Moreover, the GI50 in experiment [8] is > 100 µM (inactive); in [9] it was > 100 µM (inactive); in experiment [10] it was 88.5 µM (inactive); in experiment [11] it was > 100 µM (inactive); in experiment [12] it was > 100 µM (inactive); in experiment [13], > 100 µM (inactive). Besides, the GI50 in experiment [14], in experiment [15], in [16], in experiment [17], in [20] and in [18] was > 100 µM (inactive) in each case. Further, in [19], the GI50 was > 100 µM (inactive).

In the case of `Oc1ccc(-c2nc(-c3cccnc3)c(-c3ccc(F)cc3)[nH]2)cc1`, the GI50 is 16.6 µM (inactive) in [1]; 19 µM (inactive) in experiment [2]; 12.5 µM (inactive) in experiment [3]; 23.4 µM (inactive) in [4]; 18.6 µM (inactive) in experiment [5]; > 10 µM (inactive) in experiment [6]. In addition, the GI50 was 16.7 µM (inactive) in experiment [7]; 21.5 µM (inactive) in [8]; 19.5 µM (inactive) in experiment [9]; 18.2 µM (inactive) in experiment [10]; 16.2 µM (inactive) in [11]; 18.1 µM (inactive) in experiment [12]. Further, the GI50 is 16.7 µM (inactive) in [13]; 17.9 µM (inactive) in [14]; 17.5 µM (inactive) in [15]; 12.7 µM (inactive) in experiment [16]; 17.7 µM (inactive) in experiment [17]; 23.9 µM (inactive) in experiment [20]. For the same compound, in experiment [18], the GI50 is 28.6 µM (inactive).

Regarding `CCOC(=O)c1cc(C2CCN(c3ccccc3)C2=O)c(C(=O)/C=C(/C)N)[nH]1` (stereo not given), the GI50 was > 100 µM (inactive) in experiment [1]; 71.4 µM (inactive) in experiment [2]; 28 µM (inactive) in experiment [3]; 16.6 µM (inactive) in experiment [4]; 28.2 µM (inactive) in experiment [5]; 49.2 µM (inactive) in experiment [6]. In addition, the GI50 is 15.9 µM (inactive) in experiment [7]; 20.5 µM (inactive) in experiment [8]; > 100 µM (inactive) in experiment [9]; 8.05 µM (inactive) in [10]; > 100 µM (inactive) in experiment [11]; 12.9 µM (inactive) in experiment [12]. Further, the GI50 was 39.5 µM (inactive) in experiment [13]; > 100 µM (inactive) in experiment [14]; 33.7 µM (inactive) in [15]; 92.3 µM (inactive) in experiment [16]; 65 µM (inactive) in experiment [17]; 21.8 µM (inactive) in experiment [20]. The GI50 in experiment [18] was 21.3 µM (inactive).

As to `Clc1cc(Cl)cc(/C=N/C23CC4CC(CC(C4)C2)C3)c1`, the GI50 in experiment [1], in experiment [2], in experiment [3], in experiment [4], in experiment [5] and in [7] was > 10 µM (inactive) throughout. Moreover, the GI50 in experiment [8], in experiment [9], in experiment [10], in experiment [11], in [12] and in experiment [13] was > 10 µM (inactive) each time. The GI50 in experiment [14], in experiment [15], in [16], in experiment [17], in experiment [20] and in [18] was > 10 µM (inactive) each time. In addition, the GI50 in [19] was > 10 µM (inactive).

For `CN1CCc2c([nH]c3ccccc23)C1`, the GI50 in experiment [1], in experiment [2], in [3], in [4], in experiment [5] and in experiment [6] was > 100 µM (inactive) each time. Further, the GI50 in [7] is > 100 µM (inactive); in [8], > 100 µM (inactive); in experiment [9] it was > 100 µM (inactive); in [10] it was 19.7 µM (inactive); in experiment [11], > 100 µM (inactive); in [12] it was > 100 µM (inactive). Besides, the GI50 in [13], in experiment [14], in [15], in [16], in [17] and in experiment [20] was > 100 µM (inactive) in each case. Moreover, the GI50 in experiment [18] was > 100 µM (inactive).

Consider `NC(C(=O)OC(=O)c1ccccc1)C(=O)OC(=O)c1ccccc1`, for which the GI50 in experiment [1] was > 100 µM (inactive); in experiment [2] it was > 10 µM (inactive); in experiment [3] it was > 100 µM (inactive); in experiment [5] it was > 100 µM (inactive); in experiment [6], > 100 µM (inactive); in experiment [7] it was > 100 µM (inactive). Besides, the GI50 in [8], in [9], in [10], in experiment [11], in experiment [12] and in experiment [13] was > 100 µM (inactive) throughout. The GI50 in [14], in experiment [16], in experiment [17], in experiment [20], in experiment [18] and in experiment [19] was > 100 µM (inactive) in each case.

Consider `Cc1cc2c(c(/C=N/c3ccccc3O)c1)OC1(C=C2)Oc2ccccc2C(=O)N1C` (stereo not given), for which the GI50 in experiment [1] is 18.7 µM (inactive); in experiment [2], 28.2 µM (inactive); in experiment [3] it was 12.8 µM (inactive); in experiment [4] it was 24.4 µM (inactive); in [5] it was 16.8 µM (inactive); in [6] it was 10.6 µM (inactive). Besides, the GI50 is 24.7 µM (inactive) in experiment [7]; 15.4 µM (inactive) in experiment [8]; 22.9 µM (inactive) in experiment [9]; 18.6 µM (inactive) in experiment [10]; 22.6 µM (inactive) in experiment [11]; 16.6 µM (inactive) in [12]. The GI50 was 17.4 µM (inactive) in [13]; 19.5 µM (inactive) in experiment [14]; 21.5 µM (inactive) in experiment [15]; 17.8 µM (inactive) in [16]; 15.5 µM (inactive) in experiment [17]; 20.9 µM (inactive) in experiment [20]. The GI50 in [18] was 13.3 µM (inactive).
